Consider 1 molecule from patent US20110237679A1, “NOVEL ANTIVIRAL COMPOUNDS, COMPOSITIONS, AND METHODS OF USE” (CYTOKINE PHARMASCIENCES, INC., priority 2008, published 2011).

The nature of this experiment: in vitro activity comparison (FIG. 1). Format: cell-based. The conditions noted are these: relative to ITI-367.

Turning to `COc1ccccc1C(=Nc1cccc(C(F)(F)F)c1)NO` [CPSI-00220, N-hydroxy-2-methoxy-N′-(3-trifluoromethyl-phenyl)-benzamidine], the “effectiveness in vitro compared with ITI-367” value was “equally (and possibly more) as effective as ITI-367”.
